Test results: patent publication US6914045B2, “Glycopeptide antibiotics” (Wyeth Holdings Corporation, priority 2001, dated 2005)
Converted amounts (≈) assume the structure as drawn.

Tests used:
Assay in all cases: in vitro antibacterial evaluation, MIC by broth dilution
Format in all cases: cell-based
Enterococcus sp. = settings: broth dilution, 18 hours at 35° C.
In short: (§1)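 Broth dilution per NCCLS standard M7-A2 in Muller-Hinton II […], with an inoculum of 5×10^5 CFU/mL and antibiotic spanning 64-0.06 μg/mL. The MIC is the lowest concentration that inhibits growth of the organism.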

Staphylococcus sp. = settings: broth dilution, 18 hours at 35° C.; for MIC Staphylococcus aureus (GC 1131): strain GC 1131
In short: as §1

Streptococcus sp. = settings: broth dilution, 18 hours at 35° C.
In short: as §1

Escherichia coli = settings: 18 hours at 35° C.

## CC(c1ccc(Cl)cc1)C1NC(=O)CNC(=O)C(CO)NC(=O)C(C(O)C2CNC(=N)N2C2OC(CO)C(O)C(O)C2O)NC(=O)C(C(O)C2CNC(=N)N2)NC(=O)C(Cc2ccc(OC3OC(CO)C(OC4OC5COC(C6CCCCC6)OC5C(O)C4O)C(O)C3O)cc2)NC1=O (stereo not shown) [Example 193]
Enterococcus sp.
  MIC Enterococcus avium (GC 4558): 2 µg/mL (≈ 1.4 µM)
  MIC Enterococcus faecalis (ATCC 29212): 1 µg/mL (≈ 0.702 µM)
  MIC Enterococcus faecalis (GC 2242): 1 µg/mL (≈ 0.702 µM)
  MIC Enterococcus faecalis (GC 2691): 2 µg/mL (≈ 1.4 µM)
  MIC Enterococcus faecalis (GC 3059): 1 µg/mL (≈ 0.702 µM)
  MIC Enterococcus faecalis (GC 4552): 1 µg/mL (≈ 0.702 µM)
  MIC Enterococcus faecalis (GC 4553): 2 µg/mL (≈ 1.4 µM)
  MIC Enterococcus faecalis (GC 4554): 2 µg/mL (≈ 1.4 µM)
  MIC Enterococcus faecalis (GC 6189): 0.5 µg/mL (≈ 0.351 µM)
  MIC Enterococcus faecium (GC 2243): 1 µg/mL (≈ 0.702 µM)
  MIC Enterococcus faecium (GC 4556): 1 µg/mL (≈ 0.702 µM)
  MIC Enterococcus faecium (GC 4557): 2 µg/mL (≈ 1.4 µM)
Enterococcus sp.; inoculum 5×10^5 CFU/mL, strain ATCC 29212
  MIC Enterococcus faecalis (ATCC 29212): 1 µg/mL (≈ 0.702 µM)
Enterococcus sp.; inoculum 5×10^5 CFU/mL, strain GC 2242
  MIC Enterococcus faecalis (GC 2242): 1 µg/mL (≈ 0.702 µM)
Enterococcus sp.; inoculum 5×10^5 CFU/mL, strain GC 2243
  MIC Enterococcus faecium (GC 2243): 1 µg/mL (≈ 0.702 µM)
Enterococcus sp.; inoculum 5×10^5 CFU/mL, strain GC 2691
  MIC Enterococcus faecalis (GC 2691): 2 µg/mL (≈ 1.4 µM)
Enterococcus sp.; inoculum 5×10^5 CFU/mL, strain GC 3059
  MIC Enterococcus faecalis (GC 3059): 1 µg/mL (≈ 0.702 µM)
Enterococcus sp.; inoculum 5×10^5 CFU/mL, strain GC 4552
  MIC Enterococcus faecalis (GC 4552): 1 µg/mL (≈ 0.702 µM)
Enterococcus sp.; inoculum 5×10^5 CFU/mL, strain GC 4553
  MIC Enterococcus faecalis (GC 4553): 2 µg/mL (≈ 1.4 µM)
Enterococcus sp.; inoculum 5×10^5 CFU/mL, strain GC 4554
  MIC Enterococcus faecalis (GC 4554): 2 µg/mL (≈ 1.4 µM)
Enterococcus sp.; inoculum 5×10^5 CFU/mL, strain GC 4556
  MIC Enterococcus faecium (GC 4556): 1 µg/mL (≈ 0.702 µM)
Enterococcus sp.; inoculum 5×10^5 CFU/mL, strain GC 4557
  MIC Enterococcus faecium (GC 4557): 2 µg/mL (≈ 1.4 µM)
Enterococcus sp.; inoculum 5×10^5 CFU/mL, strain GC 4558
  MIC Enterococcus avium (GC 4558): 2 µg/mL (≈ 1.4 µM)
Enterococcus sp.; inoculum 5×10^5 CFU/mL, strain GC 6189
  MIC Enterococcus faecalis (GC 6189): 0.5 µg/mL (≈ 0.351 µM)
Staphylococcus sp.; inoculum 5×10^5 CFU/mL
  MIC Staphylococcus aureus (GC 1131): 1 µg/mL (≈ 0.702 µM)
Staphylococcus sp.; strain ATCC 29213
  MIC Staphylococcus aureus (ATCC 29213): 0.5 µg/mL (≈ 0.351 µM)
Staphylococcus sp.
  MIC Staphylococcus aureus (GC 1131): 1 µg/mL (≈ 0.702 µM)
Staphylococcus sp.; strain GC 3051
  MIC Staphylococcus aureus (GC 3051): 1 µg/mL (≈ 0.702 µM)
Staphylococcus sp.; strain GC 3053
  MIC Staphylococcus aureus (GC 3053): 0.5 µg/mL (≈ 0.351 µM)
Staphylococcus sp.; strain GC 4541
  MIC Staphylococcus aureus (GC 4541): 0.5 µg/mL (≈ 0.351 µM)
Staphylococcus sp.; strain GC 4542
  MIC Staphylococcus aureus (GC 4542): 0.25 µg/mL (≈ 0.176 µM)
Staphylococcus sp.; strain GC 4543
  MIC Staphylococcus aureus-SMITH (GC 4543): 0.5 µg/mL (≈ 0.351 µM)
Staphylococcus sp.; strain GC 4544
  MIC Staphylococcus aureus (GC 4544): 1 µg/mL (≈ 0.702 µM)
Staphylococcus sp.; strain GC 4545
  MIC Staphylococcus aureus (GC 4545): 0.5 µg/mL (≈ 0.351 µM)
Staphylococcus sp.; strain GC 4546
  MIC Staphylococcus haemolyticus (GC 4546): 0.5 µg/mL (≈ 0.351 µM)
Staphylococcus sp.; strain GC 4547
  MIC Coagulase Negative Staphylococcus (GC 4547): 1 µg/mL (≈ 0.702 µM)
Staphylococcus sp.; strain GC 4548
  MIC Coagulase Negative Staphylococcus (GC 4548): 0.25 µg/mL (≈ 0.176 µM)
Staphylococcus sp.; strain GC 4549
  MIC Coagulase Negative Staphylococcus (GC 4549): 0.25 µg/mL (≈ 0.176 µM)
Staphylococcus sp.; strain GC 4551
  MIC Coagulase Negative Staphylococcus (GC 4551): 0.5 µg/mL (≈ 0.351 µM)
Staphylococcus sp.; strain GC 6257
  MIC Coagulase Negative Staphylococcus (GC 6257): 0.25 µg/mL (≈ 0.176 µM)
Streptococcus sp.
  MIC Streptococcus agalactiae (GC 4564): <0.06 µg/mL
  MIC Streptococcus pneumoniae (ATCC 6301): 0.12 µg/mL (≈ 0.0843 µM)
  MIC Streptococcus pneumoniae (GC 1894): <0.06 µg/mL
  MIC Streptococcus pneumoniae (GC 4565): <0.06 µg/mL
  MIC Streptococcus pyogenes (GC 4563): <0.06 µg/mL
Streptococcus sp.; inoculum 5×10^5 CFU/mL, strain ATCC 6301
  MIC Streptococcus pneumoniae (ATCC 6301): 0.12 µg/mL (≈ 0.0843 µM)
Streptococcus sp.; inoculum 5×10^5 CFU/mL, strain GC 1894
  MIC Streptococcus pneumoniae (GC 1894): <0.06 µg/mL
Streptococcus sp.; inoculum 5×10^5 CFU/mL, strain GC 4563
  MIC Streptococcus pyogenes (GC 4563): <0.06 µg/mL
Streptococcus sp.; inoculum 5×10^5 CFU/mL, strain GC 4564
  MIC Streptococcus agalactiae (GC 4564): <0.06 µg/mL
Streptococcus sp.; inoculum 5×10^5 CFU/mL, strain GC 4565
  MIC Streptococcus pneumoniae (GC 4565): <0.06 µg/mL
Escherichia coli
  MIC Escherichia coli (GC 4559): 32 µg/mL (≈ 22.5 µM)
  MIC Escherichia coli (GC 4560): 2 µg/mL (≈ 1.4 µM)
